Patent US20210052563A1, “PROTON PUMP INHIBITORS AND METHODS OF USE IN CHEMORADIATION-INDUCED TISSUE INFLAMMATION AND SCARRING” (Baylor College of Medicine, priority 2018, published 2021)

How the values were obtained:
[1] = test system: radiation-induced dermatitis; assay: Mouse model of radiation-induced dermatitis: skin appearance and dermatitis scoring; type: in vivo, C57BL/6J mice
Protocol: In vivo study: mouse model of radiation-induced dermatitis: a 30-day study was conducted using C57BL/6J mice (Jackson Laboratories, Bar Harbor, Me.) to assess the efficacy of dermaprazole in mitigating radiation-induced dermatitis. The experiment consisted of 1 group receiving no radiation (Group 1) and 5 groups receiving radiation (Groups 2 to 6) (Table 2) from an X-ray source. First, all the animals were prepared for experiment by removing hair from the flank area using an electric shaver and hair removal cream. The lack of skin irritation from the shaving procedure was visually confirmed prior to randomization. […] Dermaprazole was evaluated in a prophylactic (treatment schedule from day 1 to day 30) and therapeutic (treatment schedule from day 10 to day 30) course. For the prophylactic course, low dose (1%, Group 2) and high dose (2%, Group 3) of dermaprazole were evaluated. For the therapeutic course (Group 4), only the high dose was evaluated. […] The photographs were blindly evaluated and scored by a certified dermatologist using Common Terminology Criteria for Adverse Events (CTCAE; version 4.0)(79): 0=normal skin appearance; 1=mild erythema; 2=moderate-to-severe erythema; 3=desquamation of 25-50% of irradiated area; 4=desquamation of >50% irradiated area; and 5=frank ulcer. […]

[2] = test system: radiation-induced dermatitis; assay: Mouse model of radiation-induced dermatitis: histopathology (H&E, Masson's Trichrome, CD11b, F4/80); type: in vivo, C57BL/6J mice
Protocol: In vivo study: mouse model of radiation-induced dermatitis: a 30-day study was conducted using C57BL/6J mice (Jackson Laboratories, Bar Harbor, Me.) to assess the efficacy of dermaprazole in mitigating radiation-induced dermatitis. The experiment consisted of 1 group receiving no radiation (Group 1) and 5 groups receiving radiation (Groups 2 to 6) (Table 2) from an X-ray source. First, all the animals were prepared for experiment by removing hair from the flank area using an electric shaver and hair removal cream. The lack of skin irritation from the shaving procedure was visually confirmed prior to randomization. Twenty-four hours later, radiation was delivered to pre-defined area (2×2 cm) on the flank of the animals in Groups 2 to 6. To induce dermatitis, the animals were anesthetized using 4% isoflurane in oxygen until a deep plane of anesthesia was achieved. Subsequently, the animals were placed under lead shielding (Braintree Scientific, Braintree, Mass.) to protect the remaining part of the body and expose the flank to a total radiation dose of 30 Gy fractionated as 2×15 Gy on study days 0 and 7 using the same settings described above. Dermaprazole was evaluated in a prophylactic (treatment schedule from day 1 to day 30) and therapeutic (treatment schedule from day 10 to day 30) course. For the prophylactic course, low dose (1%, Group 2) and high dose (2%, Group 3) of dermaprazole were evaluated. For the therapeutic course (Group 4), only the high dose was evaluated. Similarly, the sham (Group 1) and vehicle (Group 5) groups were treated with placebo cream containing no active drug starting from day 0 of the study. As a positive treatment control, 1% hydrocortisone (Group 6) was applied starting from day 0. […] The photographs were blindly evaluated and scored by a certified dermatologist using Common Terminology Criteria for Adverse Events (CTCAE; version 4.0)(79): 0=normal skin appearance; 1=mild erythema; 2=moderate-to-severe erythema; 3=desquamation of 25-50% of irradiated area; 4=desquamation of >50% irradiated area; and 5=frank ulcer. […]

[3] = test system: chemotherapy-resistant human cancer cell lines; details: PPI pretreatment vs no pretreatment; melanoma, colon, breast and ovarian cancer cell lines; cited from earlier work
[4] = test system: bleomycin-induced lung injury; details: systemic administration; cited from earlier work

SMILES	skin necrosis ([1]; 16 days and 30 days post-irradiation)	animals with no effect on healing of the wounds ([1]; once daily topical, 30-day model) [%]	ulceration (H&E stain) ([2]; day 30)	collagen accumulation (Masson's Trichrome stain) ([2]; days 16 and 30)	CD11b and F4/80 positive inflammatory cells at the injury site ([2]; immunohistochemical staining of irradiated skin)	change of IC50 values of cisplatin, vinblastine and 5-fluorouracil [3]	lung inflammation and fibrosis [4]
C[C@]12CCC(=O)C=C1CC[C@@H]1[C@@H]2[C@@H](O)C[C@@]2(C)[C@H]1CC[C@]2(O)C(=O)CO [1% hydrocortisone, hydrocortisone]	severe skin necrosis	90	ulceration is seen by day 30	Increased collagen deposition	Increased number of inflammatory cells		
COc1ccc2nc([S@@+]([O-])Cc3ncc(C)c(OC)c3C)[nH]c2c1 [esomeprazole]						order of magnitude reduction	suppresses lung inflammation and fibrosis
